{"source": "patent US11912723B2", "about": "“KRAS modulators and uses thereof” (Quanta Therapeutics, Inc., priority 2022, dated 2024)", "data": [{"molecular_target": "T1, GST-tagged KRAS G12D (2-169) (Homo sapiens, UniProt P01116, G12D)", "T1 construct": "GST-tagged KRAS^G12D (2-169, Reaction Biology, MSC-11-539); purchased Reaction Biology MSC-11-539 (KRAS G12D); MSC-11-502 (SOS1cat)", "T1 sequence (P01116 2-169 isoform P01116-2 G12D)": "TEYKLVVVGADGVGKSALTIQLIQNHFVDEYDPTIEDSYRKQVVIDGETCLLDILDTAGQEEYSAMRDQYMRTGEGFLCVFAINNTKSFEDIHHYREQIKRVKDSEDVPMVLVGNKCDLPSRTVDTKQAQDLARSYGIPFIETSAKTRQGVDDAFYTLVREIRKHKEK", "experiment": "Nucleotide exchange assay (NEA), HTRF of SOS-mediated GTP-DY-647P1 binding", "format": "biochemical", "conditions": "5 nM GST-KRAS G12D, 20 nM SOScat, 150 nM GTP; compound 1 h at RT", "text": "This activity is tightly regulated by GTPase activating proteins (GAPs) and guanine nucleotide exchange factors (GEFs). GEFs, such as SOS1/2, activate Ras proteins by exchanging GDP for GTP, thus returning Ras to its active conformation (Simanshu, Nissley, & McCormick, 2017). […] Homogenous time resolved fluorescence (HTRF) was used to detect SOS-mediated binding of a fluorescent GTP analog, GTP-DY-647P1 (Jena Biosciences NU-820-647P1) to GST-tagged KRAS^G12D (2-169, Reaction Biology, MSC-11-539).\nGST-tagged KRAS^G12D (2-169) and anti-GST MAb Tb Cryptate Gold (CisBio 61GSTTLB) were diluted into assay buffer (20 mM HEPES, pH 7.3, 150 mM NaCl, 5 mM MgCl2, 0.05% BSA 0.0025% NP40, 1 mM DTT) to prepare a 2.5× donor solution. 5× compound was added to the protein mixture and incubated for 1 h at RT. 2.5× acceptor solution containing SOS1cat (564-1049, Reaction Biology MSC-11-502) and GTP-DY-647P1 were then added to the donor KRAS mixture such that the final concentration of the reaction contained 5 nM GST-tagged KRAS^G12D (2-169), 20 nM SOScat, and 150 nM GTP. The reaction was monitored using at RT with the Envision multimode plate reader (Ex/Em 337/665, […]) up to 90 minutes at 5 minute intervals. Data was blanked to reactions without SOS1 and % inhibition was calculated such that DMSO only=0% and blank=100%. Curve fitting was done using a 4 parameter fit. NEA KRAS G12D ID50 (uM) values of selected compounds are depicted in Table 2 with compounds having a value<0.01 uM as ++++; >0.01 uM to 0.1 uM as +++; >0.1 uM to 1 uM as ++; >1 uM to 20 uM as +; and >20 uM as NA.", "units": {"IC50": "µM"}, "values": [{"smiles": "O=C1CCCN(c2nc(OCC34CCCN3CC(F)C4)nc3c2COC2(CCc4c(Cl)cccc42)C3)CC1", "note": "(mixture of isomers) [Compound 21, 1-[4′-chloro-2-[[rac-(2R,8S)-2-fluoro-1,2,3,5,6,7-hexahydropyrrolizin-8-yl]methoxy]spiro[5,8-dihydropyrano[4,3-d]pyrimidine-7,1′-indane]-4-yl]azepan-4-one]", "IC50": "1 to 20"}, {"smiles": "N#Cc1c(N)sc2c1C1(CCC2)Cc2nc(OC[C@@]34CCCN3C[C@H](F)C4)nc(N3CCCCCC3)c2CO1", "note": "(mixture of isomers) [Compound 26, 2′-amino-4-(azepan-1-yl)-2-[[rac-(2R,8S)-2-fluoro-1,2,3,5,6,7-hexahydropyrrolizin-8-yl]methoxy]spiro[5,8-dihydropyrano[4,3-d]pyrimidine-7,4′-6,7-dihydro-5H-benzothiophene]-3′-carbonitrile]", "IC50": "1 to 20"}, {"smiles": "C[C@@]1(O)CCCN(c2nc(OC[C@@]34CCCN3C[C@H](F)C4)nc3c2COC2(CCc4c(Cl)cccc42)C3)C1", "note": "(single isomer, unassigned) [Compound 23B, (3R)-1-[(7*)-4′-chloro-2-[[(2R,8S)-2-fluoro-1,2,3,5,6,7-hexahydropyrrolizin-8-yl]methoxy]spiro[5,8-dihydropyrano[4,3-d]pyrimidine-7,1′-indane]-4-yl]-3-methyl-piperidin-3-ol]", "IC50": "1 to 20"}, {"smiles": "O=C1NC(=O)[C@]2(CCCN(c3nc(OC[C@@]45CCCN4C[C@H](F)C5)nc4c3COC3(CCCc5c(Cl)cc(O)cc53)C4)C2)N1", "note": "(single isomer, unassigned) [Compound 51A, (5R)-9-[(7*)-5′-chloro-2-[[(2R,8S)-2-fluoro-1,2,3,5,6,7-hexahydropyrrolizin-8-yl]methoxy]-7′-hydroxy-spiro[5,8-dihydropyrano[4,3-d]pyrimidine-7,1′-tetralin]-4-yl]-1,3,9-triazaspiro[4.5]decane-2,4-dione]", "IC50": "1 to 20"}, {"smiles": "OC1CCCN(c2nc(OC[C@@]34CCCN3C[C@H](F)C4)nc3c2COC2(CCCc4ccc(F)cc42)C3)CC1", "note": "(stereo partly drawn) [Compound 11, 1-[7′-fluoro-2-[[(2R,8S)-2-fluoro-1,2,3,5,6,7-hexahydropyrrolizin-8-yl]methoxy]spiro[5,8-dihydropyrano[4,3-d]pyrimidine-7,1′-tetralin]-4-yl]azepan-4-ol]", "IC50": "1 to 20"}, {"smiles": "F[C@H]1CN2CCC[C@@]2(COc2nc3c(c(N4CCCCCC4)n2)COC2(CCCc4ccccc42)C3)C1", "note": "(stereo partly drawn) [Compound 12, 4-(azepan-1-yl)-2-[[(2R,8S)-2-fluoro-1,2,3,5,6,7-hexahydropyrrolizin-8-yl]methoxy]spiro[5,8-dihydropyrano[4,3-d]pyrimidine-7,1′-tetralin]]", "IC50": "1 to 20"}, {"smiles": "O[C@@H]1CCN(c2nc(OC[C@@]34CCCN3C[C@H](F)C4)nc3c2COC2(CCc4c(Cl)cccc42)C3)CC[C@@H]1O", "note": "(stereo partly drawn) [Compound 22, syn-1-[4′-chloro-2-[[(2R,8S)-2-fluoro-1,2,3,5,6,7-hexahydropyrrolizin-8-yl]methoxy]spiro[5,8-dihydropyrano[4,3-d]pyrimidine-7,1′-indane]-4-yl]azepane-4,5-diol]", "IC50": "1 to 20"}, {"smiles": "N#CN[C@@H]1CCCCN(c2nc(OC[C@@]34CCCN3C[C@H](F)C4)nc3c2CO[C@@]2(CCc4c(Cl)cccc42)C3)C1", "note": "[Compound 44, [(3R)-1-[(7S)-4′-chloro-2-[[(2R)-2-fluoro-1,2,3,5,6,7-hexahydropyrrolizin-8-yl]methoxy]spiro[5,8-dihydropyrano[4,3-d]pyrimidine-7,1′-indane]-4-yl]azepan-3-yl]cyanamide]", "IC50": "1 to 20"}, {"smiles": "C[C@@]1(NC#N)CCCN(c2nc(OC[C@@]34CCCN3C[C@H](F)C4)nc3c2COC2(CCc4c(Cl)cccc42)C3)C1", "note": "(stereo partly drawn) [Compound 46B, [(3R)-1-[(7*)-4′-chloro-2-[[(2R,8S)-2-fluoro-1,2,3,5,6,7-hexahydropyrrolizin-8-yl]methoxy]spiro[5,8-dihydropyrano[4,3-d]pyrimidine-7,1′-indane]-4-yl]-3-methyl-3-piperidyl]cyanamide; 2,2,2-trifluoroacetic acid]", "IC50": "1 to 20"}, {"smiles": "O=C(c1nn2c(c1Cl)CN(c1nc(OC[C@@]34CCCN3C[C@H](F)C4)nc3c1CO[C@@]1(CCc4c(Cl)cccc41)C3)CCC2)N1CCS(=O)(=O)CC1", "note": "[Compound 56, [3-chloro-5-[(7R)-4′-chloro-2-[[(2R,8S)-2-fluoro-1,2,3,5,6,7-hexahydropyrrolizin-8-yl]methoxy]spiro[5,8-dihydropyrano[4,3-d]pyrimidine-7,1′-indane]-4-yl]-4,6,7,8-tetrahydropyrazolo[1,5-a][1,4]diazepin-2-yl]-(1,1-dioxo-1,4-thiazinan-4-yl)methanone]", "IC50": "0.01 to 0.1"}, {"smiles": "CN1Cc2c(nc(OC[C@@]34CCCN3C[C@H](F)C4)nc2N2CCC[C@]3(C2)NC(=O)NC3=O)C[C@]12CCc1c(Cl)cccc12", "note": "[Compound 58, (5R)-9-[(7S)-4′-chloro-2-[[(2R,8S)-2-fluoro-1,2,3,5,6,7-hexahydropyrrolizin-8-yl]methoxy]-6-methyl-spiro[5,8-dihydropyrido[4,3-d]pyrimidine-7,1′-indane]-4-yl]-1,3,9-triazaspiro[4.5]decane-2,4-dione]", "IC50": "0.01 to 0.1"}, {"smiles": "CN(C)C(=O)c1nn2c(c1Cl)CN(c1nc(OC[C@@]34CCCN3C[C@H](F)C4)nc3c1COC1(CCc4ccc(C(F)F)cc41)C3)CCC2", "note": "(stereo partly drawn) [Compound 75, 3-chloro-5-[6′-(difluoromethyl)-2-[[(2R,8S)-2-fluoro-1,2,3,5,6,7-hexahydropyrrolizin-8-yl]methoxy]spiro[5,8-dihydropyrano[4,3-d]pyrimidine-7,1′-indane]-4-yl]-N,N-dimethyl-4,6,7,8-tetrahydropyrazolo[1,5-a][1,4]diazepine-2-carboxamide]", "IC50": "0.1 to 1"}, {"smiles": "CN(C)C(=O)c1nn2c(c1Cl)CN(c1nc(OC[C@@]34CCCN3C[C@H](F)C4)nc3c1CN(CC#N)[C@@]1(CCc4cccc(F)c41)C3)CCC2", "note": "[Compound 101, 3-chloro-5-[(7S)-6-(cyanomethyl)-7′-fluoro-2-[[(2R,8S)-2-fluoro-1,2,3,5,6,7-hexahydropyrrolizin-8-yl]methoxy]spiro[5,8-dihydropyrido[4,3-d]pyrimidine-7,1′-indane]-4-yl]-N,N-dimethyl-4,6,7,8-tetrahydropyrazolo[1,5-a][1,4]diazepine-2-carboxamide]", "IC50": "0.1 to 1"}, {"smiles": "CN(C)C(=O)c1nn2c(c1Cl)CN(c1nc(OC[C@@]34CCCN3C[C@H](F)C4)nc3c1CN(CC#N)[C@@]1(CCCc4ccccc41)C3)CCC2", "note": "[Compound 102, 3-chloro-5-[(7S)-6-(cyanomethyl)-2-[[(2R,8S)-2-fluoro-1,2,3,5,6,7-hexahydropyrrolizin-8-yl]methoxy]spiro[5,8-dihydropyrido[4,3-d]pyrimidine-7,1′-tetralin]-4-yl]-N,N-dimethyl-4,6,7,8-tetrahydropyrazolo[1,5-a][1,4]diazepine-2-carboxamide]", "IC50": "0.01 to 0.1"}, {"smiles": "CCN1Cc2c(nc(OC[C@@]34CCCN3C[C@H](F)C4)nc2N2CCCn3nc(C(=O)N(C)C)c(Cl)c3C2)C[C@]12CCc1cccc(F)c12", "note": "[Compound 103, 3-chloro-5-[(7S)-6-ethyl-7′-fluoro-2-[[(2R,8S)-2-fluoro-1,2,3,5,6,7-hexahydropyrrolizin-8-yl]methoxy]spiro[5,8-dihydropyrido[4,3-d]pyrimidine-7,1′-indane]-4-yl]-N,N-dimethyl-4,6,7,8-tetrahydropyrazolo[1,5-a][1,4]diazepine-2-carboxamide]", "IC50": "0.01 to 0.1"}]}]}
